The structures appear in SMILES notation. Entries after “also recorded” stand apart in the source; their conditions may differ. Counter-ions that a name gives are not always drawn.

Assay type in all cases: physicochemical
A short description of data set [1]: stressing at 40° C./75% relative humidity (stability study, XRPD). To be noted: for physical stability to stressing at 40° C./75% relative humidity (RH): 7 days.
Data set [2] can be described thus: heat stress on a TGA, recovered material analyzed by XRPD. To be noted: held ~1 minute; for Post-XRPD (100° C.): heated on TGA to 100° C.; for Post-XRPD (150° C.): heated on TGA to 150° C. As to the method: Samples of each form were heat stressed on a TGA. Samples were heated to the specified temperature and held at that temperature for approximately 1 minute. The material was then recovered from the TGA and analyzed by XRPD.

The nature of data set [3]: storage under ambient conditions (15° C. to 30° C.), form conversion. To be noted: temperature of from 15° C. to 30° C. As to the method: For Free Base Form E, Free Base Form F, Free Base Form G, Free Base Form H, and Free Base Form J: two different instruments were used for characterizing the materials by XRPD. Samples were analysed dry with a Malvern Panalytical Xpert Pro diffractometer, except for Free Base Form F. Free Base Form F was analysed using a Malvern Panalytical Empyrean diffractometer.
Napsylate Salt Form C was analysed by XRPD.

As for `CN1CCN([C@@H]2CCCN(c3cnc(C(N)=O)c(Nc4ccc(C5CCN(CC6CCN(c7ccc(C(=O)N[C@H]8CCC(=O)NC8=O)nc7)CC6)CC5)cc4)n3)C2)C1=O` [Free Base Form G], the “physical stability to stressing at 40° C./75% relative humidity (RH)” value in data set [1] is on record as “not physically stable”.

With `CN1CCN([C@@H]2CCCN(c3cnc(C(N)=O)c(Nc4ccc(C5CCN(CC6CCN(c7ccc(C(=O)N[C@H]8CCC(=O)NC8=O)nc7)CC6)CC5)cc4)n3)C2)C1=O` [Free Base Form A], the “Post-XRPD (100° C.)” value in data set [2] (listed as A) is listed as “Free Base Form A”.

`CN1CCN([C@@H]2CCCN(c3cnc(C(N)=O)c(Nc4ccc(C5CCN(CC6CCN(c7ccc(C(=O)N[C@H]8CCC(=O)NC8=O)nc7)CC6)CC5)cc4)n3)C2)C1=O` [Succinate Salt Form B]: the “form after stressing at 40° C./75% relative humidity (RH)” value in data set [1] (1 week (FIG. 72)) is on record as “converted back to Succinate Salt Form A”.

For the compound `CN1CCN([C@@H]2CCCN(c3cnc(C(N)=O)c(Nc4ccc(C5CCN(CC6CCN(c7ccc(C(=O)N[C@H]8CCC(=O)NC8=O)nc7)CC6)CC5)cc4)n3)C2)C1=O` [Free Base Form F], the “physical stability to ambient conditions” value in data set [3] was “converted on drying at ambient conditions (including a temperature of from 15 °C to 30° C.) to Free Base Form J; also recorded: not physically stable”. Moreover, the “physical stability to stressing at 40° C./75% relative humidity (RH)” value in data set [1] was “not physically stable”.

`CN1CCN([C@@H]2CCCN(c3cnc(C(N)=O)c(Nc4ccc(C5CCN(CC6CCN(c7ccc(C(=O)N[C@H]8CCC(=O)NC8=O)nc7)CC6)CC5)cc4)n3)C2)C1=O` [Free Base Form C]: the “Post-XRPD (150° C.)” value in data set [2] (listed as C) is listed as “Free Base Form C”.

Turning to `CN1CCN([C@@H]2CCCN(c3cnc(C(N)=O)c(Nc4ccc(C5CCN(CC6CCN(c7ccc(C(=O)N[C@H]8CCC(=O)NC8=O)nc7)CC6)CC5)cc4)n3)C2)C1=O` [Free Base Form D], the “Post-XRPD (100° C.)” value in data set [2] (listed as D) was “Free Base Form D”.

`CN1CCN([C@@H]2CCCN(c3cnc(C(N)=O)c(Nc4ccc(C5CCN(CC6CCN(c7ccc(C(=O)N[C@H]8CCC(=O)NC8=O)nc7)CC6)CC5)cc4)n3)C2)C1=O` [Free Base Form B]: the “Post-XRPD (150° C.)” value in data set [2] (listed as B) was “Free Base Form A”.

Take `CN1CCN([C@@H]2CCCN(c3cnc(C(N)=O)c(Nc4ccc(C5CCN(CC6CCN(c7ccc(C(=O)N[C@H]8CCC(=O)NC8=O)nc7)CC6)CC5)cc4)n3)C2)C1=O` [Free Base Form H]: the “physical stability to stressing at 40° C./75% relative humidity (RH)” value in data set [1] is “physically stable”.

`CN1CCN([C@@H]2CCCN(c3cnc(C(N)=O)c(Nc4ccc(C5CCN(CC6CCN(c7ccc(C(=O)N[C@H]8CCC(=O)NC8=O)nc7)CC6)CC5)cc4)n3)C2)C1=O` [Napsylate Salt Form B]: the “physical stability to ambient conditions” value in data set [3] was “conversion to Napsylate Salt Form C”.

As to `CN1CCN([C@@H]2CCCN(c3cnc(C(N)=O)c(Nc4ccc(C5CCN(CC6CCN(c7ccc(C(=O)N[C@H]8CCC(=O)NC8=O)nc7)CC6)CC5)cc4)n3)C2)C1=O` [Free Base Form E], the “physical stability to stressing at 40° C./75% relative humidity (RH)” value in data set [1] is given as “physically stable”.

As for `CN1CCN([C@@H]2CCCN(c3cnc(C(N)=O)c(Nc4ccc(C5CCN(CC6CCN(c7ccc(C(=O)N[C@H]8CCC(=O)NC8=O)nc7)CC6)CC5)cc4)n3)C2)C1=O` [Free Base Form J], the “physical stability to stressing at 40° C./75% relative humidity (RH)” value in data set [1] is on record as “physically stable”.

For the origin of these results see US20250136579A1, “SALTS AND FREE BASES OF BIFUNCTIONAL COMPOUND AND POLYMORPH FORMS THEREOF” (NURIX THERAPEUTICS, INC., priority 2023, published 2025).
